Assays:
in vivo = conditions: male, Sprague-Dawley, rat
Protocol: (§1) All in vivo measurements were performed using a two-electrode setup in which the reference and counter electrodes were a silver wire coated with a silver chloride film as described above. The measurements carried out in vivo were recorded using a handheld potentiostat.
(§2) In vivo Experiments Animals. Adult male Sprague-Dawley rats (300-500 g) were pair housed in a temperature and humidity controlled vivarium on a 12-h light-dark cycle and provided ad libitum access to food and water. All animal procedures were consistent with the guidelines of the NIH Guide for Care and Use of Laboratory Animals.
(§3) Surgery. For the anesthetized preparation, rats were anesthetized using isoflurane gas inhalation (2.5%) and monitored throughout the experiment using a pulse oximeter to measure heart rate and % SpO2 to insure depth of anesthesia. After exposing both ventral jugular veins, a simple catheter made from a [sequence] tube (Dow Corning, Midland, Mich., USA) fitted with a steel cannula was implanted into the left jugular vein. 0.1-0.3 mL of heparin (1000 U/mL) were immediately infused through the catheter to prevent blood clotting. The sensor was inserted into the right jugular vein and secured in place with surgical suture.
(§4) Measurements. A 30-minute sensor baseline was established before the first drug infusion. For anesthetized animals, a 3 mL syringe filled with the target drug was connected to the sensor-free catheter (placed in the jugular opposite that in which the sensor is emplaced) and placed in a motorized syringe pump. After establishing a stable baseline, the target drug was infused through this catheter at a rate of 0.2 mL/min. Target drugs included kanamycin (0.1 M solution), gentamicin (10 mg/mL), tobramycin (0.1 M solution), and doxorubicin (1.0 mM). After drug infusion, recordings were taken for up to 2 hours before the next infusion.
(§5) Sensors were fabricated using an aptamer recognizing the aminoglycoside antibiotics. Using these sensors, monotonically increasing intravenous doses of kanamycin were administered spanning the therapeutic ranges used in humans (10-30 mg/kg) and animals (25-30 mg/kg).
(§6) The pharmacokinetics of tobramycin were monitored following sequential 20 mg/kg intravenous injections conducted 2 hours apart in each of three rats.

[1] = Continuous real-time in vivo measurement of drug levels in blood with membrane-protected EAB sensors in the jugular vein of rats; conditions: anesthetized Sprague-Dawley rats, after each injection
Protocol: as §1, §2, §3, §4, §5, §6

[2] = male, Sprague-Dawley, rat, in vivo, iv
Protocol: as §1, §2, §3, §4, §5, §6

Row | SMILES | Cmax (in vivo) [nM] | time to effective clearance of 90% of the drug from the circulatory system [1] [min] | maximum concentrations depending on the delivered dose [2] [µM] | maximum concentration observed ([2]; 10 mg/kg) [µM]
1 | COc1cccc2c1C(=O)c1c(O)c3c(c(O)c1C2=O)C[C@@](O)(C(=O)CO)C[C@@H]3O[C@H]1C[C@H](N)[C@H](O)[C@H](C)O1 [DOX, doxorubicin] | ~600 | ≤ 50 |  | 
2 | NC[C@H]1O[C@H](O[C@H]2[C@H](O)[C@@H](O[C@H]3O[C@H](CO)[C@@H](O)[C@H](N)[C@H]3O)[C@H](N)C[C@@H]2N)[C@H](O)[C@@H](O)[C@@H]1O [kanamycin] |  |  | 34 to 400 | 200
